Data from patent US9005646B2, “Compositions for repair of defects in tissues, and methods of making the same” (LifeNet Health, priority 2005, dated 2015).

Legend:
athymic nude mice = test: Osteoinductivity bioassay of irradiated compositions with radioprotectant, implanted into athymic nude mice; assay type: in vivo; details: for Passed Osteoinductivity: radioprotectant added to homogenized fascia slurry of tissue repair composition, post-gamma irradiation, implanted into athymic nude mice
Source text: (§1) Multiple radioprotectants (Table 1) were investigated over a range of concentrations and the handling characteristics of the resultant products were semi-quantitatively analyzed post-gamma irradiation. Those products that passed the semi-quantitative analysis went on to be implanted into athymic nude mice as a bioassay to assess osteoinductivity.
The method to add the radioprotectant was consistent for each radioprotectant investigated. The slurry was made as described in example 1 (heating and blending cycles) and once completed, the radioprotectant of choice was added to the slurry in the form it was supplied from the manufacturer (powder or liquid).

[1] = Semi-quantitative analysis of handling characteristics post-gamma irradiation; assay type: physicochemical; details: putty/paste tissue repair composition; sterilizing dose of gamma irradiation; 100 mM where radioprotectant present
Source text: To meet the current U.S. FDA regulatory standards and market expectations, a product must be sterile to a sterility assurance level of 1×10^−6 (SAL). […] The composition crumbled apart releasing the bone matrix.
In order to manufacture a tissue repair composition, in the form of a putty/paste, having desirable handling characteristics post-irradiation at dose designed to achieve a SAL of 1×10^−6, it was thought that the addition of one or more radioprotectants to the composition would produce a product with the desirable handling properties because the radioprotectant will act as a free radical scavenger during the irradiation sterilization process and would protect the handling characteristics of the putty/paste composition. An addition facet was that the radioprotectant must not negatively interfere with the biological activity over time (shelf life).
as §1

handling characteristics after gamma irradiation [1] | Compound | Passed Osteoinductivity (athymic nude mice) | impact on osteoinductivity (athymic nude mice; 100 mM radioprotectant in composition, after sterilizing dose of gamma irradiation)
– | L-Ascorbic Acid 2-phosphate sesquimagnesium salt | Yes | –
– | L-Ascorbic Acid, salt | Yes | –
no negative impact | N=C(N)NN [Aminoguanidine] | Yes | no negative impact
